# Assay results: ChEMBL document CHEMBL3994587, “An insight on synthetic and medicinal aspects of pyrazolo[1,5-a]pyrimidine scaffold” (Eur J Med Chem, 2017)
# Key:
# Translocator protein [1] = target: T1, Translocator protein (Rattus norvegicus, UniProt P16257); test: Displacement of [3H]Ro5-4864 from PBZR in rat kidney mitochondrial membranes measured after 90 mins by liquid scintillation counting; assay type: cell membranes
# Translocator protein [2] = target: T1, Translocator protein; test: Displacement of [3H]PK11195 from PBZR in rat kidney mitochondrial membranes measured after 90 mins by liquid scintillation counting; assay type: cell membranes
# Tritrichomonas foetus = test: Anti-parasitic activity against Tritrichomonas foetus measured after 48 hrs by microscopic analysis; assay type: functional; conditions: for MIC: Tritrichomonas foetus, 48 h
# Escherichia coli [3] = test: Antibacterial activity against Escherichia coli measured after 18 hrs by agar dilution method; assay type: functional
# Candida albicans [4] = test: Antifungal activity against Candida albicans measured after 18 hrs by agar dilution method; assay type: functional
# Pseudomonas aeruginosa [5] = test: Antibacterial activity against Pseudomonas aeruginosa measured after 18 hrs by agar dilution method; assay type: functional
# Staphylococcus aureus [6] = test: Antibacterial activity against Staphylococcus aureus measured after 18 hrs by agar dilution method; assay type: functional
# Bacillus subtilis [7] = test: Antibacterial activity against Bacillus subtilis measured after 18 hrs by agar dilution method; assay type: functional
# Escherichia coli [8] = test: Antibacterial activity against Escherichia coli NCTC 10416 assessed as zone of inhibition at 1 mg/ml measured after 24 hrs by agar diffusion method; assay type: functional; conditions: NCTC 10416, 24 h, read-out: IZ
# Serratia marcescens = test: Antibacterial activity against Serratia marcescens IMRU 70 assessed as zone of inhibition at 1 mg/ml measured after 24 hrs by agar diffusion method; assay type: functional; conditions: IMRU 70, 24 h, read-out: IZ
# Sarcina = test: Antibacterial activity against Sarcina sp. NCTC 1117 assessed as zone of inhibition at 1 mg/ml measured after 24 hrs by agar diffusion method; assay type: functional; conditions: NCTC 1117, 24 h, read-out: IZ
# Bacillus subtilis [9] = test: Antibacterial activity against Bacillus subtilis NCTC 10400 assessed as zone of inhibition at 1 mg/ml measured after 24 hrs by agar diffusion method; assay type: functional; conditions: NCTC 10400, 24 h, read-out: IZ
# Staphylococcus aureus [10] = test: Antibacterial activity against Staphylococcus aureus NCTC 7447 assessed as zone of inhibition at 1 mg/ml measured after 24 hrs by agar diffusion method; assay type: functional; conditions: NCTC 7447, 24 h, read-out: IZ
# [11] = tested on: Syncephalastrum racemosum; test: Antifungal activity against Syncephalastrum racemosum 005004 assessed as zone of inhibition at 30 ug/ml; assay type: functional; conditions: read-out: IZ
# Aspergillus fumigatus = test: Antifungal activity against Aspergillus fumigatus RCMB 002006 assessed as zone of inhibition at 30 ug/ml; assay type: functional; conditions: read-out: IZ
# Candida albicans [12] = test: Antifungal activity against Candida albicans RCMB 0005003 assessed as zone of inhibition at 30 ug/ml; assay type: functional; conditions: read-out: IZ
# Geotrichum candidum = test: Antifungal activity against Geotrichum candidum 052008 assessed as zone of inhibition at 30 ug/ml; assay type: functional; conditions: read-out: IZ
# Escherichia coli [13] = test: Antibacterial activity against Escherichia coli RCMB 000106 assessed as zone of inhibition at 30 ug/ml; assay type: functional; conditions: read-out: IZ
# Bacillus subtilis [14] = test: Antibacterial activity against Bacillus subtilis RCMB 000109 assessed as zone of inhibition at 30 ug/ml; assay type: functional; conditions: read-out: IZ
# Staphylococcus aureus [15] = test: Antibacterial activity against Staphylococcus aureus RCMB 000108 assessed as zone of inhibition at 30 ug/ml; assay type: functional; conditions: read-out: IZ
# Pseudomonas aeruginosa [16] = test: Antibacterial activity against Pseudomonas aeruginosa RCMB 000103 assessed as zone of inhibition at 30 ug/ml; assay type: functional; conditions: read-out: IZ
# [17] = tested on: Trichophyton mentagrophytes; test: Anti-fungal activity against Trichophyton mentagrophytes measured after 48 hrs by broth dilution method; assay type: functional
# Staphylococcus aureus [18] = test: Antibacterial activity against Staphylococcus aureus MTCC 96 assessed as zone of inhibition at 25 to 150 ug/ml measured after 24 hrs by agar well diffusion method; assay type: functional
# Aspergillus niger = test: Antifungal activity against Aspergillus niger assessed as zone of inhibition at 25 to 150 ug/ml measured after 24 to 48 hrs by agar well diffusion method; assay type: functional
# Bacillus subtilis [19] = test: Antibacterial activity against Bacillus subtilis MTCC 441 assessed as zone of inhibition at 25 to 150 ug/ml measured after 24 hrs by agar well diffusion method; assay type: functional
# Aspergillus flavus = test: Antifungal activity against Aspergillus flavus MTCC 3008 assessed as zone of inhibition at 25 to 150 ug/ml measured after 24 to 48 hrs by agar well diffusion method; assay type: functional
# Candida albicans [20] = test: Antifungal activity against Candida albicans MTCC 227 assessed as zone of inhibition at 25 to 150 ug/ml measured after 24 to 48 hrs by agar well diffusion method; assay type: functional
# Salmonella typhi = test: Antibacterial activity against Salmonella typhi MTCC 98 assessed as zone of inhibition at 25 to 150 ug/ml measured after 24 hrs by agar well diffusion method; assay type: functional, Salmonella enterica subsp. enterica serovar Typhi
# Escherichia coli [21] = test: Antibacterial activity against Escherichia coli MTCC 443 assessed as zone of inhibition at 25 to 150 ug/ml measured after 24 hrs by agar well diffusion method; assay type: functional
# Penicillium chrysogenum = test: Antifungal activity against Penicillium chrysogenum MTCC 160 assessed as zone of inhibition at 25 to 150 ug/ml measured after 24 to 48 hrs by agar well diffusion method; assay type: functional
# T1 sequence (P16257 whole entry, looked up): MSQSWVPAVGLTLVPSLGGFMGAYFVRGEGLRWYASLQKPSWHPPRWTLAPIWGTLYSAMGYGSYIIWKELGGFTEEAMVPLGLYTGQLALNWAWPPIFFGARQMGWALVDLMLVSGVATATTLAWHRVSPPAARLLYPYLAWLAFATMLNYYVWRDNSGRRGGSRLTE
smiles,measurement,setting,value
CCC(CC)C(=O)Cc1c(-c2ccc(Cl)cc2)nn2c(C)cc(C)nc12,Ki,Translocator protein [1],1.4 nM
same,Ki,Translocator protein [2],2.4 nM
CCOC(=O)c1cn(CC)c2c([N+](=O)[O-])cnn2c1=O,MLC,Tritrichomonas foetus,3.2 µg/mL
same,MIC,Tritrichomonas foetus,1 µg/mL
CCC(CC)C(=O)Cc1c(-c2ccc(C)cc2)nn2c(C)cc(C)nc12,Ki,Translocator protein [1],1.7 nM
same,Ki,Translocator protein [2],0.8 nM
Cc1nc(-c2ccccc2)sc1-c1ccn2ncc(-c3ccccc3)c2n1,MIC,Escherichia coli [3],≥ 800 µg/mL
same,MIC,Candida albicans [4],≥ 400 µg/mL
same,MIC,Pseudomonas aeruginosa [5],≥ 400 µg/mL
same,MIC,Staphylococcus aureus [6],≥ 800 µg/mL
same,MIC,Bacillus subtilis [7],≥ 400 µg/mL
COc1ccc(NS(=O)(=O)c2ccc(/N=N/c3c(=O)[nH]n4c(-c5ncccn5)c(C#N)c(N)nc34)cc2)cc1,zone of inhibition at 1000 µg/mL,Escherichia coli [8],15 to 18 mm
same,zone of inhibition at 1000 µg/mL,Serratia marcescens,15 to 18 mm
same,zone of inhibition at 1000 µg/mL,Sarcina,15 to 18 mm
same,zone of inhibition at 1000 µg/mL,Bacillus subtilis [9],9 to 11 mm
same,zone of inhibition at 1000 µg/mL,Staphylococcus aureus [10],12 to 14 mm
Clc1ccccc1C(c1ccccc1)(c1ccccc1)n1ccnc1 [CLOTRIMAZOLE],zone of inhibition at 30 µg/mL,[11],21.4 mm
same,zone of inhibition at 30 µg/mL,Aspergillus fumigatus,26.3 mm
same,zone of inhibition at 30 µg/mL,Candida albicans [12],20.8 mm
same,zone of inhibition at 30 µg/mL,Geotrichum candidum,23.2 mm
Nc1nn2c(-c3ccco3)cc(-c3ccco3)nc2c1/N=N/c1ccccc1,zone of inhibition at 30 µg/mL,[11],10.2 mm
same,zone of inhibition at 30 µg/mL,Aspergillus fumigatus,14.2 mm
same,zone of inhibition at 30 µg/mL,Escherichia coli [13],15.2 mm
same,zone of inhibition at 30 µg/mL,Bacillus subtilis [14],15.7 mm
same,zone of inhibition at 30 µg/mL,Geotrichum candidum,15.3 mm
same,zone of inhibition at 30 µg/mL,Staphylococcus aureus [15],16.7 mm
CCC(CC)C(=O)Cc1c(-c2ccc(Cl)cc2)nn2c(C)cc(-c3ccccc3)nc12,Ki,Translocator protein [1],2.7 nM
same,Ki,Translocator protein [2],3.4 nM
Cc1ncc([N+](=O)[O-])n1CCO [METRONIDAZOLE],MLC,Tritrichomonas foetus,10 µg/mL
same,MIC,Tritrichomonas foetus,3.2 µg/mL
CCC(C)n1ncn(-c2ccc(N3CCN(c4ccc(OCC5COC(Cn6cncn6)(c6ccc(Cl)cc6Cl)O5)cc4)CC3)cc2)c1=O (configuration not stated) [ITRACONAZOLE],zone of inhibition at 30 µg/mL,[11],23.9 mm
same,zone of inhibition at 30 µg/mL,Aspergillus fumigatus,27.4 mm
same,zone of inhibition at 30 µg/mL,Candida albicans [12],25.2 mm
same,zone of inhibition at 30 µg/mL,Geotrichum candidum,24.2 mm
CN[C@@H]1[C@H](O[C@H]2[C@H](O[C@H]3[C@H](O)[C@@H](O)[C@H](N=C(N)N)[C@@H](O)[C@@H]3N=C(N)N)O[C@@H](C)[C@]2(O)C=O)O[C@@H](CO)[C@H](O)[C@H]1O [STREPTOMYCIN],zone of inhibition at 30 µg/mL,Pseudomonas aeruginosa [16],25.2 mm
same,zone of inhibition at 30 µg/mL,Escherichia coli [13],29.7 mm
same,zone of inhibition at 30 µg/mL,Bacillus subtilis [14],29.7 mm
same,zone of inhibition at 30 µg/mL,Staphylococcus aureus [15],28.1 mm
CCCCCCCCNc1cc(C)nc2ccnn12,MLC,[17],160 µM
same,MIC,"[17]; Trichophyton mentagrophytes, 48 h",20 µM
CC1(C)S[C@@H]2[C@H](NC(=O)Cc3ccccc3)C(=O)N2[C@H]1C(=O)O [PENICILLIN G],zone of inhibition at 30 µg/mL,Pseudomonas aeruginosa [16],28.3 mm
same,zone of inhibition at 30 µg/mL,Escherichia coli [13],33.1 mm
same,zone of inhibition at 30 µg/mL,Bacillus subtilis [14],31.6 mm
same,zone of inhibition at 30 µg/mL,Staphylococcus aureus [15],30.1 mm
Cc1nn(-c2ccccc2)c(Cl)c1-c1cc(-c2cc(Cl)cc(I)c2O)nc2c(/N=N/c3ccc(Cl)cc3)c(N)nn12,inhibition zone (IZ),Staphylococcus aureus [18],18 mm
same,inhibition zone (IZ),Aspergillus niger,26 mm
same,inhibition zone (IZ),Bacillus subtilis [19],15 mm
same,inhibition zone (IZ),Aspergillus flavus,21 mm
same,inhibition zone (IZ),Candida albicans [20],19 mm
same,inhibition zone (IZ),Salmonella typhi,16 mm
same,inhibition zone (IZ),Escherichia coli [21],17 mm
same,inhibition zone (IZ),Penicillium chrysogenum,17 mm
O=C(O)c1cn(C2CC2)c2cc(N3CCNCC3)c(F)cc2c1=O [CIPROFLOXACIN],MIC,Escherichia coli [3],≤ 25 µg/mL
same,MIC,Candida albicans [4],≥ 800 µg/mL
same,MIC,Pseudomonas aeruginosa [5],400 µg/mL
same,MIC,Staphylococcus aureus [6],≤ 25 µg/mL
same,MIC,Bacillus subtilis [7],≤ 25 µg/mL
